The values below come from patent publication US20200095280A1, “Methods of using GM6 in diagnosing and treating Alzheimers disease” (Genervon Biopharmaceuticals LLC, priority 2016, published 2020).

Where no end group is shown, it is not given here.

The data set can be described thus: Blood brain barrier transit: ELISA of brain homogenate after IV injection. It is filed as in vivo, C57BL6 mice. The conditions noted are these: single bolus IV 0.2 and 2.0 mg/kg, four hours; vs control P=0.0001. The protocol:
The ability to transit to the brain was tested. C57BL6 mice were injected with a single bolus IV tail vein injection of GM6 at 0.2 and 2.0 mg/kg. At four hours, the animals were sacrificed, and half of the brain was frozen for ELISA analysis.

FSRYAR [GM6, FSRYAR]: the “GM6 in brain homogenate supernatant (ELISA)” value is on record as “detected GM6 at statistically significant levels”.
